Patent publication US8063218B2, “Imidazopyridine inhibitors of IAP” (Genentech, Inc., priority 2006, dated 2011)

Target: T1, MLXBIR3SG (Homo sapiens, UniProt Q96CA5, S150G)
T1 sequence (Q96CA5 with tags, fused parts or gaps S150G limits assumed): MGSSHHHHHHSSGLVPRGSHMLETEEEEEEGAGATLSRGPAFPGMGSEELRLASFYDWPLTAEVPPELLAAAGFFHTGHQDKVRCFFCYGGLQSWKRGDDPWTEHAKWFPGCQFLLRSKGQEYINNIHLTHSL
Assay: Fluorescence Polarization Peptide Binding Assay (competition with AVP-diPhe-FAM probe)
Details: competition: MLXBIR3SG at 30 nM, 5 nM AVP-diPhe-FAM probe; Ki determined from the IC50 values
Experimental: In the following experiments was used a chimeric BIR domain referred to as MLXBIR3SG in which 11 of 110 residues correspond to those found in XIAP-BIR3, while the remainder correspond to ML-IAP-BIR. […] The improved caspase-9 inhibition of the chimeric BIR domain MLXBIR3SG has been correlated with increased inhibition of doxorubicin-induced apoptosis when transfected into MCF7 cells. MLXBIR3SG sequence:
Fluorescence Polarization Peptide Binding Assay
Polarization experiments were performed on an Analyst HT 96-384 (Molecular Devices Corp.) according to the procedure of Keating, S. M., Marsters, J, Beresini, M., Ladner, C., Zioncheck, K., Clark, K., Arellano, F., and Bodary., S. (2000) in Proceedings of SPIE: In Vitro Diagnostic Instrumentation (Cohn, G. E., Ed.) pp 128-137, Bellingham, Wash. Samples for fluorescence polarization affinity measurements were prepared by addition of 1:2 serial dilutions starting at a final concentration of 5 μM of MLXBIR3SG in polarization buffer (50 mM Tris [pH 7.2], 120 mM NaCl, 1% bovine globulins 5 mM DTT and 0.05% octylglucoside) to 5-carboxyflourescein-conjugated AVPdi-Phe-NH2 (AVP-diPhe-FAM) at 5 nM final concentration.
The reactions were read after an incubation time of 10 minutes at room temperature with standard cut-off filters for the fluorescein fluorophore (λex=485 nm; λem=530 nm) in 96-well black HE96 plates (Molecular Devices Corp.). Fluorescence values were plotted as a function of the protein concentration, and the IC50s were obtained by fitting the data to a 4-parameter equation using Kaleidograph software (Synergy software, Reading, Pa.). Competition experiments were performed by addition of the MLXBIR3SG at 30 nM to wells containing 5 nM of the AVP-diPhe-FAM probe as well as 1:3 serial dilutions of antagonist compounds starting at a concentration of 300 μM in the polarization buffer. Samples were read after a 10-minute incubation. Fluorescence polarization values were plotted as a function of the antagonist concentration, and the IC50 values were obtained by fitting the data to a 4-parameter equation using Kaleidograph software (Synergy software, Reading, Pa.). Inhibition constants (Ki) for the antagonists were determined from the IC50 values.

Ki	Structure (SMILES)
18900 nM	CN[C@@H](C)C(=O)N[C@H](C(=O)N1CCC[C@H]1c1cn2cccc(-c3ccc(N(C)C)cc3)c2n1)C1CCOCC1 [Compound 7]
2310 nM	CN[C@@H](C)C(=O)N[C@H](C(=O)N1CCC[C@H]1c1cn2cccc(-c3ccc([N+](=O)[O-])cc3)c2n1)C1CCOCC1 [Compound 8]
1830 nM	CN[C@@H](C)C(=O)N[C@H](C(=O)N1CCC[C@H]1c1cn2cccc(-c3cccc4ccccc34)c2n1)C1CCOCC1 [Compound 20]
89.1 nM	CN[C@@H](C)C(=O)N[C@H](C(=O)N1CCC[C@H]1c1cn2c(-c3ccccc3)cccc2n1)C1CCOCC1 [Compound 1]
